{
  "source": "patent US7078403B1",
  "about": "“Antiviral agents” (Biota Scientific Management Pty Ltd., priority 1999, dated 2006)",
  "key": {"HRV type 1A": {"test_system": "HRV type 1A", "assay": "Inhibition of viral cytopathic effect (CPE), visual scoring or neutral red, HRV type 1A in MRC-5 cells", "format": "cell-based, human rhinovirus", "conditions": "for Activity on Rhinovirus Type 1A EC50: HRV type 1A in MRC-5 cells, CPE inhibition; for Activity on Rhinovirus Type 1A SI: selectivity index = CC50 or MTC divided by EC50, HRV type 1A, MRC-5 cells"}, "Rhinovirus Type 14": {"test_system": "Rhinovirus Type 14", "format": "cell-based, human rhinovirus", "conditions": "HRV-14"}, "HRV type 2": {"test_system": "HRV type 2", "assay": "Inhibition of viral cytopathic effect (CPE), visual scoring or neutral red, HRV type 2 in KB cells", "format": "cell-based, human rhinovirus", "conditions": "for Activity on Rhinovirus Type 2 EC50: HRV type 2 in KB cells, CPE inhibition; for Activity on Rhinovirus Type 2 SI: selectivity index = CC50 or MTC divided by EC50, HRV type 2, KB cells"}, "[1]": {"test_system": "human embryo lung (MRC-5) cells", "assay": "Cytotoxicity (CC50 or MTC) in uninfected MRC-5 cells", "conditions": "unit not given"}},
  "data": [
    {"smiles": "CCON=Cc1ccc(OCCC2CCN(c3ccc(Cl)nn3)CC2)c(OC)c1", "note": "[Compound 5]", "values": [
      {"measurement": "Activity on Rhinovirus Type 1A EC50", "setting": "HRV type 1A", "value": "<0.0032", "unit": "µg/mL"},
      {"measurement": "Activity on Rhinovirus Type 1A SI", "setting": "HRV type 1A", "value": ">312"},
      {"measurement": "Activity on Rhinovirus Type 14 EC50", "setting": "Rhinovirus Type 14", "value": 0.0077, "unit": "µg/mL"},
      {"measurement": "Activity on Rhinovirus Type 2 EC50", "setting": "HRV type 2", "value": 0.009, "unit": "µg/mL"},
      {"measurement": "Activity on Rhinovirus Type 2 SI", "setting": "HRV type 2", "value": ">111"},
      {"measurement": "Activity on Rhinovirus Type 1A MTC", "setting": "[1]", "value": ">1"}
    ]},
    {"smiles": "CON=Cc1ccc(OCCC2CCN(c3ccc(C)nn3)CC2)cc1", "note": "[Compound 7]", "values": [
      {"measurement": "Activity on Rhinovirus Type 1A EC50", "setting": "HRV type 1A", "value": "<0.0032", "unit": "µg/mL"},
      {"measurement": "Activity on Rhinovirus Type 1A SI", "setting": "HRV type 1A", "value": ">312"},
      {"measurement": "Activity on Rhinovirus Type 14 EC50", "setting": "Rhinovirus Type 14", "value": 0.0068, "unit": "µg/mL"},
      {"measurement": "Activity on Rhinovirus Type 2 EC50", "setting": "HRV type 2", "value": 0.15, "unit": "µg/mL"},
      {"measurement": "Activity on Rhinovirus Type 2 SI", "setting": "HRV type 2", "value": ">7"},
      {"measurement": "Activity on Rhinovirus Type 1A MTC", "setting": "[1]", "value": ">1"}
    ]},
    {"smiles": "CON=Cc1ccc(OCCC2CCN(c3ccc(Cl)nn3)CC2)cc1", "note": "[Compound 8]", "values": [
      {"measurement": "Activity on Rhinovirus Type 1A EC50", "setting": "HRV type 1A", "value": "<0.0032", "unit": "µg/mL"},
      {"measurement": "Activity on Rhinovirus Type 1A SI", "setting": "HRV type 1A", "value": ">312"},
      {"measurement": "Activity on Rhinovirus Type 14 EC50", "setting": "Rhinovirus Type 14", "value": 0.0072, "unit": "µg/mL"},
      {"measurement": "Activity on Rhinovirus Type 2 EC50", "setting": "HRV type 2", "value": 0.03, "unit": "µg/mL"},
      {"measurement": "Activity on Rhinovirus Type 2 SI", "setting": "HRV type 2", "value": ">33"},
      {"measurement": "Activity on Rhinovirus Type 1A MTC", "setting": "[1]", "value": ">1"}
    ]},
    {"smiles": "CCCON=Cc1ccc(OCCC2CCN(c3ccc(Cl)nn3)CC2)cc1", "note": "[Compound 11]", "values": [
      {"measurement": "Activity on Rhinovirus Type 1A EC50", "setting": "HRV type 1A", "value": "<0.0032", "unit": "µg/mL"},
      {"measurement": "Activity on Rhinovirus Type 1A SI", "setting": "HRV type 1A", "value": ">312"},
      {"measurement": "Activity on Rhinovirus Type 14 EC50", "setting": "Rhinovirus Type 14", "value": 0.0077, "unit": "µg/mL"},
      {"measurement": "Activity on Rhinovirus Type 2 EC50", "setting": "HRV type 2", "value": 0.004, "unit": "µg/mL"},
      {"measurement": "Activity on Rhinovirus Type 2 SI", "setting": "HRV type 2", "value": ">250"},
      {"measurement": "Activity on Rhinovirus Type 1A MTC", "setting": "[1]", "value": ">1"}
    ]},
    {"smiles": "CCON=Cc1ccc(OCCC2CCN(c3ccc(C)nn3)CC2)c(C)c1", "note": "[Compound 51]", "values": [
      {"measurement": "Activity on Rhinovirus Type 1A EC50", "setting": "HRV type 1A", "value": "<0.003", "unit": "µg/mL"},
      {"measurement": "Activity on Rhinovirus Type 1A SI", "setting": "HRV type 1A", "value": ">207.3"},
      {"measurement": "Activity on Rhinovirus Type 14 EC50", "setting": "Rhinovirus Type 14", "value": 0.0093, "unit": "µg/mL"},
      {"measurement": "Activity on Rhinovirus Type 1A MTC", "setting": "[1]", "value": 0.663}
    ]},
    {"smiles": "CON=Cc1ccc(OCCC2CCN(c3ccc(C)nn3)CC2)c(C)c1", "note": "[Compound 52]", "values": [
      {"measurement": "Activity on Rhinovirus Type 1A EC50", "setting": "HRV type 1A", "value": "<0.003", "unit": "µg/mL"},
      {"measurement": "Activity on Rhinovirus Type 1A SI", "setting": "HRV type 1A", "value": ">312"},
      {"measurement": "Activity on Rhinovirus Type 14 EC50", "setting": "Rhinovirus Type 14", "value": 0.0054, "unit": "µg/mL"},
      {"measurement": "Activity on Rhinovirus Type 1A MTC", "setting": "[1]", "value": ">1"}
    ]},
    {"smiles": "CCON=Cc1ccc(OCCC2CCN(c3ccc(C)nn3)CC2)c(O)c1", "note": "[Compound 146]", "values": [
      {"measurement": "Activity on Rhinovirus Type 1A EC50", "setting": "HRV type 1A", "value": 0.051, "unit": "µg/mL"},
      {"measurement": "Activity on Rhinovirus Type 1A SI", "setting": "HRV type 1A", "value": ">19"},
      {"measurement": "Activity on Rhinovirus Type 14 EC50", "setting": "Rhinovirus Type 14", "value": 0.0084, "unit": "µg/mL"},
      {"measurement": "Activity on Rhinovirus Type 1A MTC", "setting": "[1]", "value": ">1"}
    ]},
    {"smiles": "CON=Cc1ccc(OCCC2CCN(c3ccc(C)nn3)CC2)c(C)c1C", "note": "[Compound 193]", "values": [
      {"measurement": "Activity on Rhinovirus Type 14 EC50", "setting": "Rhinovirus Type 14", "value": 0.0308, "unit": "µg/mL"}
    ]},
    {"smiles": "CCO/N=C/c1ccc(OCCCCN(C)c2ccc(Cl)nn2)cc1", "note": "[Compound 195]", "values": [
      {"measurement": "Activity on Rhinovirus Type 14 EC50", "setting": "Rhinovirus Type 14", "value": 0.038, "unit": "µg/mL"}
    ]},
    {"smiles": "CCON=Cc1ccc(OCCC2CCN(c3cccc(C)n3)CC2)cc1", "note": "[Compound 196]", "values": [
      {"measurement": "Activity on Rhinovirus Type 14 EC50", "setting": "Rhinovirus Type 14", "value": 0.0424, "unit": "µg/mL"}
    ]},
    {"smiles": "CO/N=C/c1ccc(OCCC2CCN(c3cncc(Cl)n3)CC2)cc1", "note": "[Compound 199]", "values": [
      {"measurement": "Activity on Rhinovirus Type 14 EC50", "setting": "Rhinovirus Type 14", "value": 0.0402, "unit": "µg/mL"}
    ]},
    {"smiles": "CO/N=C/c1ccc(OCCC2CCN(c3nc4ccccc4o3)CC2)cc1", "note": "[Compound 200]", "values": [
      {"measurement": "Activity on Rhinovirus Type 14 EC50", "setting": "Rhinovirus Type 14", "value": 0.021, "unit": "µg/mL"}
    ]},
    {"smiles": "CCO/N=C/c1ccc(OCCC2CCN(c3nc4ccccc4o3)CC2)cc1", "note": "[Compound 201]", "values": [
      {"measurement": "Activity on Rhinovirus Type 14 EC50", "setting": "Rhinovirus Type 14", "value": 0.0261, "unit": "µg/mL"}
    ]},
    {"smiles": "CO/N=C/c1ccc(OCCC2CCN(c3nc(OC)nc(OC)n3)CC2)cc1", "note": "[Compound 202]", "values": [
      {"measurement": "Activity on Rhinovirus Type 14 EC50", "setting": "Rhinovirus Type 14", "value": 0.0593, "unit": "µg/mL"}
    ]},
    {"smiles": "CCO/N=C/c1ccc(OCCC2CCN(c3nc(OC)nc(OC)n3)CC2)cc1", "note": "[Compound 203]", "values": [
      {"measurement": "Activity on Rhinovirus Type 14 EC50", "setting": "Rhinovirus Type 14", "value": 0.060, "unit": "µg/mL"}
    ]},
    {"smiles": "CCc1cnc(N2CCC(CCOc3ccc(/C=N/OC)cc3)CC2)nc1", "note": "[Compound 204]", "values": [
      {"measurement": "Activity on Rhinovirus Type 14 EC50", "setting": "Rhinovirus Type 14", "value": 0.0554, "unit": "µg/mL"}
    ]},
    {"smiles": "CCO/N=C/c1ccc(OCCC2CCN(c3ncc(CC)cn3)CC2)cc1", "note": "[Compound 205]", "values": [
      {"measurement": "Activity on Rhinovirus Type 14 EC50", "setting": "Rhinovirus Type 14", "value": 0.0638, "unit": "µg/mL"}
    ]},
    {"smiles": "CO/N=C/c1ccc(OCCC2CCN(c3nc4ccccc4s3)CC2)cc1", "note": "[Compound 206]", "values": [
      {"measurement": "Activity on Rhinovirus Type 14 EC50", "setting": "Rhinovirus Type 14", "value": 0.0233, "unit": "µg/mL"}
    ]},
    {"smiles": "CCO/N=C/c1ccc(OCCCCCOc2ccc(Cl)nn2)cc1", "note": "[Compound 209]", "values": [
      {"measurement": "Activity on Rhinovirus Type 14 EC50", "setting": "Rhinovirus Type 14", "value": 0.0157, "unit": "µg/mL"}
    ]},
    {"smiles": "CCO/N=C/c1ccc(OCCC2CCN(c3cc(C)c(Cl)nn3)CC2)cc1", "note": "[Compound 212]", "values": [
      {"measurement": "Activity on Rhinovirus Type 14 EC50", "setting": "Rhinovirus Type 14", "value": 0.0107, "unit": "µg/mL"}
    ]}
  ]
}
